Assay results taken from patent US8835571B2, “Fatty acid derivative-polymer conjugate” (Sucampo AG, priority 2012, dated 2014).

Assay: incorporation of unoprostone isopropyl into MPEG-hexPLA polymer micelles
Type: physicochemical
Protocol: The incorporation studies were carried out by a standard formulation protocol. Briefly, a defined amount of the provided unoprostone isopropyl ethanol solution was taken and the ethanol rapidly evaporated, the remaining compound was re-dissolved together with the MPEG-hexPLA excipient in acetone and added dropwise under sonication into water, followed by evaporation of the organic solvent and equilibration of the micelle solution overnight.
As it can be seen, for loadings up to 500 mg unoprostone isopropyl per gram MPEGhexPLA, loading efficiencies higher than 80% could be obtained by this simple procedure (FIG. 1), corresponding to 2.22 mg drug per mL formulation (FIG. 2). […] The latter formulations with a minimum of drug loss in the formulation procedure gave transparent formulations.

obtained drug concentration in formulation (loading 500 mg per gram MPEGhexPLA (FIG. 2)): 2.22 mg drug per mL formulation
Incorporation efficiencies (loadings up to 300 mg/g): > 90%
obtained drug concentration in formulation (loadings up to 300 mg/g): ≤ 1.67 mg/mL
loading efficiencies (loadings up to 500 mg unoprostone isopropyl per gram MPEGhexPLA (FIG. 1)): higher than 80%
Structure (SMILES): CCCCCCCC(=O)CC[C@@H]1[C@@H](C/C=C\CCCC(=O)OC(C)C)[C@@H](O)C[C@H]1O [unoprostone isopropyl, (+)-isopropyl (Z)-7-[(1R,2R,3R,5S)-3,5-dihydroxy-2-(3-oxodecyl)cyclopentyl]hept-5-enoate]
